Assay results as given in patent publication US11572548B2, “Reaction mixture for synthesis of alpha1-2-fucosides” (The Regents of the University of California, priority 2015, dated 2023).
“Also recorded” adds a separate entry of the source.

Key:
[1] = system: Bifidobacterium animalis subsp. lactis (B. lactis) ATCC 27536; assay: Growth of bifidobacteria on mMRS medium with substrate as sole carbohydrate source; type: cell-based; details: 2% (wt/vol) in mMRS, 37° C., anaerobic, OD600
Procedure: (§1) B. infantis 15697 and B. animalis 27536 were tested for growth in the presence of glucose, HMOS, and LNFP I. Growth assays were performed as previously described.^[35] Briefly, two microliters of each resulting overnight culture was used to inoculate 150 μL of modified MRS medium (mMRS), devoid of glucose and supplemented with 2% (wt/vol) of each sterile-filtered substrate as the sole carbohydrate source. The medium was supplemented with 0.05% (wt/vol) 1-cysteine, and in all the cases the cultures in the wells of the microtiter plates were covered with 30 μL of sterile mineral oil to avoid evaporation. The incubations were carried out at 37° C. in an anaerobic chamber (Coy Laboratory Products). Cell growth was monitored in real time by assessing optical density at 600 nm (OD600) using a BioTek PowerWave 340 plate reader (BioTek, Winoosky, Vt.) every 30 min, preceded by 30 seconds of shaking at variable speed. Two biological replicates and three technical replicates each were performed for every strain. Fermentations were carried out in triplicate.

[2] = system: Bifidobacterium longum subsp. infantis (B. infantis) ATCC 15697; assay: as above; type: cell-based; details: 2% (wt/vol) in mMRS, 37° C., anaerobic, OD600
Procedure: as §1

Compound: CC(=O)N[C@H]1[C@H](O[C@H]2[C@@H](O)[C@@H](CO)O[C@@H](O[C@H]3[C@H](O)[C@@H](O)C(O)O[C@@H]3CO)[C@@H]2O)O[C@H](CO)[C@@H](O)[C@@H]1O[C@@H]1O[C@H](CO)[C@H](O)[C@H](O)[C@H]1O[C@@H]1O[C@@H](C)[C@@H](O)[C@@H](O)[C@@H]1O (stereo partly drawn) [LNFP I, Fucα1-2Galβ1-3GlcNAcβ1-3Galβ1-4Glc]
- growth with substrate as sole carbon source [1]: failed to grow
- growth compared with growth on glucose [2]: remarkably faster
- growth with substrate as sole carbon source [2]: grew well; also recorded: selectively consumed as a carbon source
